Assay [1] has as its system TPA induced ear inflammation model in C57BL/6 mice. As to the kind of experiment: IS217 alone and in combination with methotrexate and betamethasone in TPA induced ear inflammation model. In kind it is in vivo. On the procedure:
The experimental procedure, doses and route of administration were same as IMQ model. Test item IS217 was administered subcutaneously either alone or in combination with standard methotrexate (MTX) and betamethasone (BD) to diseased animals.

Assay [2] relates to human keratinocytes (HaCaT) cells. Briefly: Cytotoxicity of methotrexate in combination with IS217, combination index method (MTT). The class given is cell-based. The conditions noted are these: methotrexate alone 0.01-5 μM, 72 h. Here is the method:
Assessment of cytotoxicity of methotrexate in combination with IS217 on proliferation of human keratinocytes (HaCaT) cells was performed by using combination index method. HaCaT cell line is maintained by using DMEM, 10% FBS, CO2 incubator and after overnight incubation cells were replenished by using about 1% FBS and then the cells were treated with different concentrations (0.01, 0.1, 0.25, 0.5, 1, 5 μM) of methotrexate alone, IS217 (10, 50, 500, 1000, 2000, 5000 μg/ml) alone, combination of methotrexate (0.01, 0.1, 0.25, 0.5, 1, 5 μM) and IS217 (10, 50, 500, 1000, 2000, 5000 μg/ml) to achieve different combinations.
IS217 was added to the above combinations every 24 hours (i.e., three doses) whereas methotrexate was added only once in 72 hours during the 72 hours of incubation. Then the plates were subjected for MTT assay and percentage inhibition (cytotoxicity) corresponding to each treatment was calculated.

Assay [3] relates to VEGF secretion. As to the kind of experiment: Inhibition of VEGF secretion in HUVEC cells. The class given is cell-based, human. The conditions noted are these: 1 mg/ml. On the procedure:
The study was conducted to evaluate anti-angiogenic effect of IS217 in HUVEC cells. […] Bevacizumab (1 mg/mL) was taken as positive control for validation purpose.

A further assay concerns HUVEC cells. Briefly: Tube formation assay in HUVEC cells (VEGF induced). The class given is cell-based, human. Further details: Tube formation assay results, Avg: scale not given here. Here is the method:
HUVEC cells were used as test system to determine angiogenic effect of IS217 by assessing the inhibitory effects of test item on endothelial cells tube formation. Prior to the tube formation assay, test item of concentration ranging 0.01 μg/ml to 1000 μg/ml were used to treat endothelial cells for its cytotoxicity effect to assess suitable concentration for tube formation assay. […] The cells corresponding to positive control group were treated with bevacizumab of concentration 1000 μg/ml. The degree of angiogenesis progression was assessed based on visual pattern recognition of photomicrographs of HUVEC cells.

Assay [4] concerns VEGF secretion. As to the kind of experiment: cells. The conditions noted are these: Homo sapiens, HaCaT, read-out: inhibition of VEGF.
The next assay has as its system HaCaT cells. As to the kind of experiment: TUNEL assay. In kind it is cell-based, human. The conditions noted are these: 48 h. On the procedure: Terminal deoxynucleotidyl transferase (TdT) dUTP Nick-End Labeling (TUNEL) assay has been designed to detect apoptotic cells that undergo extensive DNA degradation during the late stages of apoptosis. […] Cells were treated with test item (IS217 of 100 μg/ml-5000 μg/ml) and positive controls like curcumin (10 μM and 20 μM), anthralin (1 μM) and betullininc acid (10 μg/ml, 20 μg/ml, 50 μg/ml). After about 48 hours of treatment, cells were analysed for the apoptotic effect via TUNEL assay. Absorbance was measured using ELISA reader (Table 1).

A further assay concerns IL-17 secretion. Briefly: IL-17 inhibition in ConA stimulated splenocytes (ELISA). In kind it is cell-based, C57BL/6 mice. The conditions noted are these: Mus musculus, Splenocyte, read-out: inhibition of IL-17 w.r.t. control (ConA) levels. Here is the method: The study was conducted to assess anti-inflammatory potential of test item IS217 in murine splenocytes isolated from C57BL/6 mice for assessing percentage inhibition of IL-17 in splenocytes by using ELISA method. […] Curcumin was taken as positive control for in-house validation.
For determining inhibitory activity against IL-17 secretion level, splenocytes cells were treated with the concentration range of 10 to 5000 μg/ml along with Con A stimulation (5 μg/ml), Con A alone treated cells were used as a positive control. After incubating for about 24 hours, IL-17 levels were estimated by ELISA corresponding to non-cytotoxic concentrations at 10 to 2000 μg/ml and absorbance of samples was determined by using ELISA reader.

The next assay has as its system IL-23 secretion. Briefly: Inhibition of IL-23 secretion in monocytes THP-1 (LPS and IFN-γ, ELISA). The class given is cell-based, human. On the procedure: The study was conducted to assess anti-inflammatory potential of test item, IS217 in human monocytic cell line (THP-1) by assessing percentage inhibition of IL-23 in monocytes by using ELISA method.
Curcumin was taken as positive control for in-house validation. For determining inhibitory activity against IL-23 secretion, human monocytic cell line (THP-1) was treated with concentration range of 10-5000 μg/ml with LPS (1 μg/ml) and IFN-γ. LPS (1 μg/ml) and IFN-γ (100 ng/ml) alone were taken as a positive control. After about 24 hours of incubation, IL-23 levels were estimated by ELISA in supernatants corresponding to non-cytotoxic concentrations at 10 to 5000 μg/ml and absorbance of samples was determined by using ELISA reader.
(In general: ELISA stands for enzyme-linked immunosorbent assay.)

Broadly, the inhibition is the share of the control response that was lost under treatment.

Consider `CN(Cc1cnc2nc(N)nc(N)c2n1)c1ccc(C(=O)N[C@@H](CCC(=O)O)C(=O)O)cc1` [methotrexate, reference compound], for which the “inhibitory activity against TPA induced increase in ear thickness” value stood at 24.95% in assay [1] (MTX 0.75 mg/kg) and 46.06% in assay [1] (MTX 1.5 mg/kg). Besides, the “50% inhibition of cell proliferation (IC50)” value in assay [2] is given as “not achieved”.

Take “Bevacizumab: positive control, commercial formulation Avastin®, anti-VEGF”: the “inhibition of VEGF” value with VEGF secretion [3] is given as 94.51%. Moreover, the “Tube formation assay results, Avg” value with HUVEC cells (Bevacizumab + VEGF) came to 0.44; with HUVEC cells (Bevacizumab, without VEGF), 0.33. For the same compound, the “inhibition of tube formation as compared to VEGF stimulation control” value with HUVEC cells (HUVEC, bevacizumab 1000 μg/ml) is 91.1%.

In the case of `CC1=C(/C=C/C(C)=C/C=C/C(C)=C/C(=O)O)C(C)(C)CCC1` [retinoic acid], the inhibition at 1 µM in the assay on VEGF secretion [4] came out at 22.8%.

Regarding `O=C1c2c(O)cccc2Cc2cccc(O)c21` [Anthralin, reference compound], in the assay on HaCaT cells (1 μM), the “% increase in TUNEL-Positive cell population w.r.t. control (untreated cells)” value (“% increase” below) is reported as −87.0%.

In the case of `C=C(C)[C@@H]1CC[C@]2(C(=O)O)CC[C@]3(C)[C@H](CC[C@@H]4[C@@]5(C)CC[C@H](O)C(C)(C)[C@@H]5CC[C@]43C)[C@@H]12` [BA, betullininc acid, reference compound], the “% increase” value with HaCaT cells (10 μg/ml) was 21.3%; in the assay with HaCaT cells (20 μg/ml) it was 48.2%; in the assay on HaCaT cells (50 μg/ml), 61.6%.

Regarding `COc1cc(/C=C/C(=O)CC(=O)/C=C/c2ccc(O)c(OC)c2)ccc1O` [Curcumin], the results for the inhibition at 1 µM in the assay on VEGF secretion [4] and in the assay with IL-17 secretion (curcumin 1 μM) were 22.8% and 40.5%, respectively. The “% increase” value in the assay with HaCaT cells (10 μM) was −72.2%; with HaCaT cells (20 μM), −76.1%. Besides, the inhibition at 10 µM was 42.5% in the assay with IL-17 secretion (curcumin 10 μM); 91.6% in the assay with IL-23 secretion (Homo sapiens, THP-1, curcumin 10 μM, read-out: inhibition of IL-23 w.r.t. control LPS and IFN-γ levels). Also, in the assay with IL-23 secretion (curcumin, second concentration not given), the “inhibition of IL-23 w.r.t. control LPS and IFN-γ levels” value stood at 90.6%.
